# Test results as given in US4702863A, “Indoaniline and indophenol compounds, a process for their preparation, dyeing compositions containing them and a hair-dyeing process” (L'Oreal, priority 1983, dated 1987).
# Assays:
# Salmonella Typhimurium [1] = assay: Ames test on Salmonella Typhimurium, with or without an S9 mix activated with Arochlor; assay type: cell-based; conditions: strains TA 100, TA 98 and TA 1538; with or without an S9 mix (Arochlor activation)
# Excerpt: Compounds of formula (I), in hair-dyeing, are substantially innocuous.
# Salmonella Typhimurium [2] = conditions: Selects-Proton Magnetic Resonance, page 1, volume 18, 1981, number 95: 75096 f; cited from earlier work
compound,measurement,setting,value
"COC1=CC(=Nc2ccc(N)cc2)C(N)=CC1=O [[(4'-amino)phenyl]-2-amino-5-methoxy-1,4-benzoquinoneimine]",mutagenicity in the Ames test,Salmonella Typhimurium [1],highly mutagenic
"COC1=CC(=Nc2ccc(N)c(C)c2)C(N)=CC1=O [[(4'-amino-3'-methyl)phenyl]-2-amino-5-methoxy-1,4-benzoquinoneimine]",mutagenicity in the Ames test,Salmonella Typhimurium [1],highly mutagenic
same,mutagenic action disclosed in Chemical Abstracts,Salmonella Typhimurium [2],highly mutagenic
